Laboratory results reported in the PolyMetriX glass transition set.
± gives the standard deviation of the reports.

SMILES | glass transition temperature
*C(=O)c1ccc2c(c1)C(=O)N(c1ccc(Cc3cccc(N4C(=O)c5ccc(*)cc5C4=O)c3)cc1)C2=O (repeat unit) | 281.00 °C
*c1ccc2oc(-c3ccc(-c4nc5cc(C(*)(C(F)(F)F)C(F)(F)F)ccc5o4)cc3)nc2c1 (repeat unit) | 371.50 °C
*c1ccc(Oc2ccc(-c3cc(-c4ccccc4)c4cc5nc(*)cc(-c6ccccc6)c5cc4n3)cc2)cc1 (repeat unit) | 365.00 °C
*C(C)C(*)C(=O)OCC (repeat unit) | 157.00 °C
*CC(*)OC(=O)CCl (repeat unit) | 20.5 °C
*CCN(*)C(=O)c1c(F)cc(F)cc1F (repeat unit) | 135.00 °C
*=Nc1ccc(/N=C(\c2ccccc2)c2ccc(C(=*)c3ccccc3)cc2)cc1 (repeat unit) | 179.00 °C
*=NP(=NP(=NC(=*)Oc1ccc(C(C)(C)c2ccccc2)cc1)(Oc1ccc(C(C)(C)c2ccccc2)cc1)Oc1ccc(C(C)(C)c2ccccc2)cc1)(Oc1ccc(C(C)(C)c2ccccc2)cc1)Oc1ccc(C(C)(C)c2ccccc2)cc1 (repeat unit) | 55.00 °C
*CC(F)(F)C(F)(F)COC(=O)NCCCCCCNC(=O)O* (repeat unit) | 9.00 °C
*O[Si](C)(C)CCCCCC[Si](*)(C)C (repeat unit) | -90.00 °C
*CCOC(=O)Nc1cc(NC(=O)O*)ccc1C (repeat unit) | 52.00 °C
*c1ccc2c(c1)C(=O)N(c1ccc(NC(=S)/N=C/c3ccc(Cl)c(N4C(=O)c5ccc(C(*)(C(F)(F)F)C(F)(F)F)cc5C4=O)c3)cc1)C2=O (repeat unit) | 272.00 °C
*CC(c1ccccc1)C1C(=O)NC(=O)C1* (repeat unit) | 246.00 °C
*CCOCCOP(=O)(/N=N/c1ccc(Oc2ccc(/N=N/P(=O)(O*)OC)cc2)cc1)OC (repeat unit) | 32.00 °C
*CC(*)C(=O)Oc1cccc(C)c1 (repeat unit) | 24.50 °C
*/C=C(\C#N)c1cccc(/C(C#N)=C/c2ccc(/C=C/c3ccc(N(CC)Cc4ccccc4CN(CC)c4ccc(/C=C/c5ccc(*)s5)cc4)cc3)s2)c1 (repeat unit) | 178.00 °C
*/C=C/CCC* (repeat unit) [Poly(1-pentenylene)] | -100.08 ± 7 °C

Other lines, results leading:

glass transition temperature | SMILES
118.00 °C | *Oc1ccc(Oc2ccc(OC(*)=O)cc2)cc1 (repeat unit)
172.00 °C | *Oc1ccc(C2(c3ccc(OC(=O)OC4C(C)(C)C(OC(*)=O)C4(C)C)cc3)CCC(C(C)(C)C)CC2)cc1 (repeat unit)
48.00 °C | *CC(*)C(=O)Oc1ccc(C(=O)Oc2ccc(OC(=O)c3ccc(OCCCCC)cc3)cc2)cc1 (repeat unit)
152.00 °C | *Oc1ccc(C(C)(C)c2ccc(Oc3ccc(C(=O)C(=O)c4ccc(*)cc4)cc3)cc2)cc1 (repeat unit)
220.00 °C | *Oc1ccc(NC(=O)c2ccc([Si](C)(C)c3ccc(C(*)=O)cc3)cc2)cc1 (repeat unit)
47.00 °C | *CC(*)C(=O)Oc1ccc(C(=O)Oc2ccc(OC(=O)c3ccc(OCCCC)cc3)cc2)cc1 (repeat unit)
158.50 °C | *c1ccc(Oc2ccc(-c3ccc(Oc4ccc(N5C(=O)CC(=O)N(*)C5=S)cc4)cc3)cc2)cc1 (repeat unit)
50.58 ± 12 °C | *CCCCCCNC(=O)CCCCCCCC(=O)N* (repeat unit) [Poly(hexamethylene azelamide)]
163.00 °C | *Oc1ccc(S(=O)(=O)c2ccc(Oc3ccc(C(C)(CCC(=O)O)c4ccc(*)cc4)cc3)cc2)cc1 (repeat unit)
125.00 °C | *c1cccc(NC(=O)CCCCCCCC(=O)Nc2cccc(S(*)(=O)=O)c2)c1 (repeat unit)
-47.90 °C | *CC(*)(C)C(=O)OCCCCCCCCCCCC (repeat unit)
20.70 °C | *O[Si](*)(C)CCCCCCCCCCC(=O)Oc1ccc(C(=O)Oc2ccc(OC(=O)CCCCC(=O)OC3CC(C)CCC3C(C)C)cc2)cc1 (repeat unit)
167.00 °C | *Oc1ccc(C(=C(Cl)Cl)c2ccc(OC(*)=O)cc2)cc1 (repeat unit)
95.00 °C | *CC(O)COc1ccc(C(C)(CC)c2ccc(O*)cc2)cc1 (repeat unit)
180.00 °C | *Oc1ccc(NC(=O)CCCCCCC(=O)Nc2ccc(*)cc2)cc1 (repeat unit)
263.00 °C | *C(=O)Nc1ccc(Oc2cccc(NC(=O)c3ccc4c(c3)C(=O)N(c3ccc(Oc5ccc6ccc(Oc7ccc(N8C(=O)c9ccc(*)cc9C8=O)cc7)cc6c5)cc3)C4=O)c2)cc1 (repeat unit)
45.00 °C | *CCCCCCCCCCNC(=O)CCCCCCCCCCCCCCC(=O)N* (repeat unit)
91.00 °C | *CC(*)(C)C(=O)OCCCCCn1c2ccccc2c2ccccc21 (repeat unit)
